Source: publication PMC3605511, “Tumor P-Glycoprotein Correlates with Efficacy of PF-3758309 in in vitro and in vivo Models of Colorectal Cancer” (Frontiers in Pharmacology, 2013)

Columns and labels:
HT29 = assay: Cell proliferation assay, HT29; format: cell-based; conditions: Homo sapiens, HT-29; HT29, 72 h, SRB assay
Method: (§1) Cytotoxic/proliferation effects were determined using the sulforhodamine B (SRB) assay (Skehan et al., [1990]) or by resazurin. Briefly, cells in logarithmic growth phase were transferred to 96 well flat bottom plates with lids. One-hundred microliter cell suspensions containing 1500–5000 viable cells were plated into each well and incubated overnight prior to exposure with increasing concentrations of PF-309 for 3–5 days, dependent upon cell type. Media was removed and cells were fixed with cold 10% trichloroacetic acid for 30 min at 4°C. Cells were then washed with water and stained with 0.4% SRB (Fisher Sci., Pittsburgh, PA, USA) for 30 min at room temperature, washed again with 1% acetic acid, followed by stain solubilization with 10 mM tris at room temperature. The plate was then read on a plate reader (Biotek Synergy 2, Winooski, VT, USA) set at an absorbance wavelength of 565 nm. Cell proliferation curves were derived from the raw absorbance (OD) data.
(§2) Since PF-309 appeared to be a strong P-gp and BCRP substrates, we sought to evaluate if the transporters influenced sensitivity in vitro. We evaluated the sensitivity of CRC cell lines to PF-309 treatment in a panel of 27 lines. Cells were exposed to PF-309 at a range of concentrations for 72 h and cell content measured by SRB assay (see Pitts et al., [2013]). […]

SW837 = assay: Cell proliferation assay, SW837; format: cell-based; conditions: Homo sapiens; SW837, 72 h, SRB assay
Method: as §1, §2

IC50 (HT29): > 1 µM
IC50 (SW837): > 1 µM
Compound: Cc1nc(Nc2n[nH]c3c2CN(C(=O)N[C@H](CN(C)C)c2ccccc2)C3(C)C)c2sccc2n1 [PF-309]
